Assay results from ChEMBL document CHEMBL1201862, “PubChem BioAssay data set” (2004).
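Compound exposure: 48 hours, 5 concentrations, 96-well plates. The concentration for 50% growth inhibition is given as GI50.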 The source made the active and inactive calls. Cut-off read from the data, not from the text of the source: active = GI50 up to about 1.1 µM and inactive = higher.

Tests used:
Assay in all cases: NCI anticancer screen, dose series, 48 h
A498 = system: A498
HCT-15 = system: HCT-15
HL-60 = system: HL-60
HOP-18 = system: HOP-18
HT-29 = system: HT-29
KM-20L2 = system: KM-20L2
KM12 = system: KM12
NCI-H226 = system: NCI-H226
NCI-H460 = system: NCI-H460
NCI-H522 = system: NCI-H522
OVCAR-8 = system: OVCAR-8
SF-295 = system: SF-295
SK-MEL-5 = system: SK-MEL-5
SK-OV-3 = system: SK-OV-3
SR = system: SR
TK-10 = system: TK-10
MDA-MB-231 = system: MDA-MB-231
MDA-N = system: MDA-N
RPMI-8226 = system: RPMI-8226
M19-MEL = system: M19-MEL

Compound | GI50 (A498) | GI50 (HCT-15) [µM] | GI50 (HL-60) | GI50 (HOP-18) | GI50 (HT-29) | GI50 (KM-20L2) | GI50 (KM12) | GI50 (NCI-H226) | GI50 (NCI-H460) | GI50 (NCI-H522) | GI50 (OVCAR-8) | GI50 (SF-295) | GI50 (SK-MEL-5) | GI50 (SK-OV-3) | GI50 (SR) | GI50 (TK-10) | GI50 (MDA-MB-231) | GI50 (MDA-N) | GI50 (RPMI-8226) | GI50 (M19-MEL)
COC1OC(CO)C(O)C1N (centres undefined) | > 100 µM (inactive) | > 100 | > 100 µM (inactive) | > 100 µM (inactive) | > 100 µM (inactive) | > 100 µM (inactive) | > 100 µM (inactive) | > 100 µM (inactive) | > 100 µM (inactive) | > 100 µM (inactive) | > 100 µM (inactive) | > 100 µM (inactive) | > 100 µM (inactive) | > 100 µM (inactive) | > 100 µM (inactive) | > 100 µM (inactive) |  |  |  | 
C=CCn1c(=O)ccn(/C(=C/C(=O)OCC)C(=O)OCC)c1=O | 17.9 µM (inactive) | 1.83 | 1.76 µM (inactive) |  | 10.4 µM (inactive) |  | 17.5 µM (inactive) | 13.9 µM (inactive) | 16.1 µM (inactive) | 2.44 µM (inactive) | 15.6 µM (inactive) | > 52.4 µM (inactive) | 15.1 µM (inactive) | 25.7 µM (inactive) | 6.4 µM (inactive) | 11.9 µM (inactive) | 9.82 µM (inactive) | 15.5 µM (inactive) | 7.94 µM (inactive) | 
ClC[Si]12OCCN(CCO1)CCO2 | > 100 µM (inactive) |  | > 100 µM (inactive) | > 100 µM (inactive) | > 100 µM (inactive) |  | > 100 µM (inactive) | > 100 µM (inactive) | > 100 µM (inactive) | > 100 µM (inactive) | > 100 µM (inactive) | > 100 µM (inactive) | > 100 µM (inactive) | > 100 µM (inactive) | > 100 µM (inactive) | > 100 µM (inactive) |  |  | > 100 µM (inactive) | 
CC(Oc1ccccc1Cl)C(=O)NN1C(=O)CSC1c1ccccc1 (centres undefined) | > 100 µM (inactive) | > 100 | 28.2 µM (inactive) |  | > 100 µM (inactive) |  | > 100 µM (inactive) | > 100 µM (inactive) | > 100 µM (inactive) | 64.6 µM (inactive) | > 100 µM (inactive) | 68.7 µM (inactive) | > 100 µM (inactive) | > 100 µM (inactive) | 21.9 µM (inactive) | > 100 µM (inactive) | > 100 µM (inactive) | 57.8 µM (inactive) | 83 µM (inactive) | 
Cc1c(Cl)cccc1NC(=O)C(=O)C(C(=O)c1ccccc1-c1ccccc1)C1OC(=O)c2ccccc21 (centres undefined) |  |  | 16.8 µM (inactive) |  | 33.1 µM (inactive) | 23.7 µM (inactive) | 18.5 µM (inactive) | 3.94 µM (inactive) | 25.5 µM (inactive) | 12.5 µM (inactive) | 25.5 µM (inactive) | 19.1 µM (inactive) | 15.7 µM (inactive) | 43 µM (inactive) |  | 28.6 µM (inactive) |  |  | 13.8 µM (inactive) | 15.1 µM (inactive)
CN1CCC(O)C(CNC23CC4CC(CC(C4)C2)C3)C1 (centres undefined) | > 100 µM (inactive) |  | > 100 µM (inactive) |  | > 100 µM (inactive) | 59 µM (inactive) | > 100 µM (inactive) | > 100 µM (inactive) | > 100 µM (inactive) | > 100 µM (inactive) | > 100 µM (inactive) | > 100 µM (inactive) | > 100 µM (inactive) | > 100 µM (inactive) | > 100 µM (inactive) | > 100 µM (inactive) |  |  |  | > 100 µM (inactive)
C=C(CBr)CCCOCc1ccccc1 | 35.2 µM (inactive) | 22 | 23.5 µM (inactive) |  | 21.2 µM (inactive) |  | 18.9 µM (inactive) | 15.5 µM (inactive) | 18.1 µM (inactive) | 22.3 µM (inactive) | 17 µM (inactive) | 36.1 µM (inactive) | 20.5 µM (inactive) | 35.5 µM (inactive) | 31.3 µM (inactive) | 16.7 µM (inactive) | > 10 µM (inactive) | > 10 µM (inactive) | 29.7 µM (inactive) | 
C=C1[C@H](OC(=O)C(C)C)[C@]23CC4(O)[C@@H]5[C@@]6(C)CCC[C@]57C([C@@H]2C[C@@]1(O)[C@H](O)[C@@H]73)N4C6 | > 100 µM (inactive) | > 100 | > 100 µM (inactive) |  | > 100 µM (inactive) |  | > 100 µM (inactive) | > 100 µM (inactive) | > 100 µM (inactive) | > 100 µM (inactive) | > 100 µM (inactive) | > 100 µM (inactive) | > 100 µM (inactive) | 98.6 µM (inactive) | > 100 µM (inactive) | > 100 µM (inactive) | > 100 µM (inactive) | > 100 µM (inactive) | > 100 µM (inactive) | 
COc1ccc(/C=C/c2cc(OC)c(OC)c(OC)c2)cc1 | 3.4 µM (inactive) | 2.57 | 2.75 µM (inactive) |  | 3.2 µM (inactive) | 2.34 µM (inactive) | 3.3 µM (inactive) | 5.61 µM (inactive) | 3.9 µM (inactive) | 2.85 µM (inactive) | 15.8 µM (inactive) | 2.73 µM (inactive) | 3.68 µM (inactive) | 8.59 µM (inactive) |  | 43.7 µM (inactive) |  |  | 1.09 µM (active) | 9.95 µM (inactive)
